≈ marks a conversion by molar mass, not a printed value.
What was measured:
Type in all cases: functional
Pseudomonas aeruginosa = assay: Antibacterial activity against Pseudomonas aeruginosa MTCC 2453 after 24 hrs by well diffusion method; settings: MTCC 2453, 24 h
Staphylococcus aureus [1] = assay: Antibacterial activity against Staphylococcus aureus MTCC 96 after 24 hrs by well diffusion method; settings: MTCC 96, 24 h
Raoultella planticola = assay: Antibacterial activity against Klebsiella planticola MTCC 530 after 24 hrs by well diffusion method; settings: MTCC 530, 24 h
Bacillus subtilis [2] = assay: Antibacterial activity against Bacillus subtilis MTCC 121 after 24 hrs by well diffusion method; settings: MTCC 121, 24 h
Escherichia coli = assay: Antibacterial activity against Escherichia coli MTCC 739 after 24 hrs by well diffusion method; settings: MTCC 739, 24 h
Staphylococcus aureus [3] = assay: Antibacterial activity against Staphylococcus aureus MLS16 MTCC 2940 after 24 hrs by well diffusion method; settings: MLS16 MTCC 2940, 24 h
Micrococcus luteus [4] = assay: Antibacterial activity against Micrococcus luteus MTCC 2470 after 24 hrs by well diffusion method; settings: MTCC 2470, 24 h
Staphylococcus aureus [5] = assay: Bactericidal activity against Staphylococcus aureus MLS16 MTCC 2940 after 24 hrs by serial dilution method; settings: MLS16 MTCC 2940, 24 h
Staphylococcus aureus [6] = assay: Bactericidal activity against Staphylococcus aureus MTCC 96 after 24 hrs by serial dilution method; settings: MTCC 96, 24 h
Bacillus subtilis [7] = assay: Bactericidal activity against Bacillus subtilis MTCC 121 after 24 hrs by serial dilution method; settings: MTCC 121, 24 h
Micrococcus luteus [8] = assay: Bactericidal activity against Micrococcus luteus MTCC 2470 after 24 hrs by serial dilution method; settings: MTCC 2470, 24 h
Staphylococcus aureus [9] = assay: Ratio of MBC to MIC for Staphylococcus aureus MLS16 MTCC 2940
Bacillus subtilis [10] = assay: Ratio of MBC to MIC for Bacillus subtilis MTCC 121

SMILES	MIC (Pseudomonas aeruginosa)	MIC (Staphylococcus aureus [1])	MIC (Raoultella planticola)	MIC (Bacillus subtilis [2])	MIC (Escherichia coli)	MIC (Staphylococcus aureus [3])	MIC (Micrococcus luteus [4])	MBC (Staphylococcus aureus [5])	MBC (Staphylococcus aureus [6])	MBC (Bacillus subtilis [7])	MBC (Micrococcus luteus [8])	Ratio (Staphylococcus aureus [9])	Ratio (Bacillus subtilis [10])
Cc1ccc(-c2nn(-c3ccccc3)cc2C2c3c(n(C)c(=O)n(C)c3=O)N=CN2c2ccccc2)cc1 (stereo not given)	> 125 µg/mL	> 125 µg/mL	> 125 µg/mL	> 125 µg/mL	> 125 µg/mL	> 125 µg/mL	> 125 µg/mL	–	–	–	–	–	–
Cn1c2c(c(=O)n(C)c1=O)C(c1cn(-c3ccccc3)nc1-c1cccs1)N(c1cccc([N+](=O)[O-])c1)C=N2 (stereo not given)	> 125 µg/mL	> 125 µg/mL	> 125 µg/mL	> 125 µg/mL	> 125 µg/mL	> 125 µg/mL	> 125 µg/mL	–	–	–	–	–	–
Cn1c2c(c(=O)n(C)c1=O)C(c1cn(-c3ccccc3)nc1-c1cccs1)N(c1ccc(Cl)cc1)C=N2 (stereo not given)	> 125 µg/mL	31.2 µg/mL (≈ 59 µM)	> 125 µg/mL	15.6 µg/mL (≈ 29.5 µM)	> 125 µg/mL	15.6 µg/mL (≈ 29.5 µM)	15.6 µg/mL (≈ 29.5 µM)	31.2 µg/mL (≈ 59 µM)	31.2 µg/mL (≈ 59 µM)	31.2 µg/mL (≈ 59 µM)	31.2 µg/mL (≈ 59 µM)	–	–
Cc1ccc(N2C=Nc3c(c(=O)n(C)c(=O)n3C)C2c2cn(-c3ccccc3)nc2-c2ccccc2)cc1 (stereo not given)	> 125 µg/mL	> 125 µg/mL	> 125 µg/mL	> 125 µg/mL	> 125 µg/mL	> 125 µg/mL	> 125 µg/mL	–	–	–	–	–	–
Cn1c2c(c(=O)n(C)c1=O)C(c1cn(-c3ccccc3)nc1-c1ccc(Cl)cc1)N(c1ccc(Cl)cc1)C=N2 (stereo not given)	> 125 µg/mL	> 125 µg/mL	> 125 µg/mL	> 125 µg/mL	> 125 µg/mL	> 125 µg/mL	> 125 µg/mL	–	–	–	–	–	–
Cn1c2c(c(=O)n(C)c1=O)C(c1cn(-c3ccccc3)nc1-c1ccc([N+](=O)[O-])cc1)N(c1ccccc1)C=N2 (stereo not given)	> 125 µg/mL	> 125 µg/mL	> 125 µg/mL	> 125 µg/mL	> 125 µg/mL	> 125 µg/mL	> 125 µg/mL	–	–	–	–	–	–
COc1ccc(N2C=Nc3c(c(=O)n(C)c(=O)n3C)C2c2cn(-c3ccccc3)nc2-c2ccc([N+](=O)[O-])cc2)cc1 (stereo not given)	> 125 µg/mL	31.2 µg/mL (≈ 55.4 µM)	> 125 µg/mL	31.2 µg/mL (≈ 55.4 µM)	> 125 µg/mL	31.2 µg/mL (≈ 55.4 µM)	15.6 µg/mL (≈ 27.7 µM)	31.2 µg/mL (≈ 55.4 µM)	62.5 µg/mL (≈ 111 µM)	31.2 µg/mL (≈ 55.4 µM)	15.6 µg/mL (≈ 27.7 µM)	–	–
Cn1c2c(c(=O)n(C)c1=O)C(c1cn(-c3ccccc3)nc1-c1ccc([N+](=O)[O-])cc1)N(c1ccc(Cl)cc1)C=N2 (stereo not given)	> 125 µg/mL	> 125 µg/mL	> 125 µg/mL	> 125 µg/mL	> 125 µg/mL	> 125 µg/mL	> 125 µg/mL	–	–	–	–	–	–
Cn1c2c(c(=O)n(C)c1=O)C(c1cn(-c3ccccc3)nc1-c1ccc([N+](=O)[O-])cc1)N(c1cccc([N+](=O)[O-])c1)C=N2 (stereo not given)	> 125 µg/mL	> 125 µg/mL	> 125 µg/mL	> 125 µg/mL	> 125 µg/mL	> 125 µg/mL	31.2 µg/mL (≈ 53.9 µM)	> 125 µg/mL	> 125 µg/mL	> 125 µg/mL	62.5 µg/mL (≈ 108 µM)	–	–
COc1ccc(N2C=Nc3c(c(=O)n(C)c(=O)n3C)C2c2cn(-c3ccccc3)nc2-c2ccc(Cl)cc2)cc1 (stereo not given)	> 125 µg/mL	15.6 µg/mL (≈ 28.2 µM)	> 125 µg/mL	31.2 µg/mL (≈ 56.4 µM)	> 125 µg/mL	15.6 µg/mL (≈ 28.2 µM)	7.8 µg/mL (≈ 14.1 µM)	15.6 µg/mL (≈ 28.2 µM)	31.2 µg/mL (≈ 56.4 µM)	31.2 µg/mL (≈ 56.4 µM)	15.6 µg/mL (≈ 28.2 µM)	2	2
Cc1ccc(N2C=Nc3c(c(=O)n(C)c(=O)n3C)C2c2cn(-c3ccccc3)nc2-c2ccc(Cl)cc2)cc1 (stereo not given)	> 125 µg/mL	> 125 µg/mL	> 125 µg/mL	> 125 µg/mL	> 125 µg/mL	> 125 µg/mL	15.6 µg/mL (≈ 29 µM)	> 125 µg/mL	> 125 µg/mL	> 125 µg/mL	31.2 µg/mL (≈ 58.1 µM)	–	–
Cn1c2c(c(=O)n(C)c1=O)C(c1cn(-c3ccccc3)nc1-c1ccccc1)N(c1ccc(Cl)cc1)C=N2 (stereo not given)	> 125 µg/mL	> 125 µg/mL	> 125 µg/mL	> 125 µg/mL	> 125 µg/mL	> 125 µg/mL	> 125 µg/mL	62.5 µg/mL (≈ 120 µM)	62.5 µg/mL (≈ 120 µM)	62.5 µg/mL (≈ 120 µM)	31.2 µg/mL (≈ 59.7 µM)	–	–
COc1ccc(N2C=Nc3c(c(=O)n(C)c(=O)n3C)C2c2cn(-c3ccccc3)nc2-c2ccccc2)cc1 (stereo not given)	> 125 µg/mL	> 125 µg/mL	> 125 µg/mL	> 125 µg/mL	> 125 µg/mL	> 125 µg/mL	> 125 µg/mL	–	–	–	–	–	–
COc1ccc(N2C=Nc3c(c(=O)n(C)c(=O)n3C)C2c2cn(-c3ccccc3)nc2-c2ccc(C)cc2)cc1 (stereo not given)	> 125 µg/mL	> 125 µg/mL	> 125 µg/mL	> 125 µg/mL	> 125 µg/mL	> 125 µg/mL	> 125 µg/mL	31.2 µg/mL (≈ 58.6 µM)	62.5 µg/mL (≈ 117 µM)	62.5 µg/mL (≈ 117 µM)	15.6 µg/mL (≈ 29.3 µM)	–	–
Cn1c2c(c(=O)n(C)c1=O)C(c1cn(-c3ccccc3)nc1-c1ccc(Cl)cc1)N(c1ccccc1)C=N2 (stereo not given)	> 125 µg/mL	> 125 µg/mL	> 125 µg/mL	> 125 µg/mL	> 125 µg/mL	> 125 µg/mL	> 125 µg/mL	–	–	–	–	–	–
Cn1c2c(c(=O)n(C)c1=O)C(c1cn(-c3ccccc3)nc1-c1ccccc1)N(c1ccccc1)C=N2 (stereo not given)	> 125 µg/mL	31.2 µg/mL (≈ 63.9 µM)	> 125 µg/mL	62.5 µg/mL (≈ 128 µM)	> 125 µg/mL	15.6 µg/mL (≈ 31.9 µM)	7.8 µg/mL (≈ 16 µM)	–	–	–	–	–	–
Cn1c2c(c(=O)n(C)c1=O)C(c1cn(-c3ccccc3)nc1-c1cccs1)N(c1ccccc1)C=N2 (stereo not given)	> 125 µg/mL	31.2 µg/mL (≈ 63.1 µM)	> 125 µg/mL	31.2 µg/mL (≈ 63.1 µM)	> 125 µg/mL	15.6 µg/mL (≈ 31.5 µM)	15.6 µg/mL (≈ 31.5 µM)	–	–	–	–	–	–
Cc1ccc(N2C=Nc3c(c(=O)n(C)c(=O)n3C)C2c2cn(-c3ccccc3)nc2-c2cccs2)cc1 (stereo not given)	> 125 µg/mL	15.6 µg/mL (≈ 30.7 µM)	> 125 µg/mL	31.2 µg/mL (≈ 61.3 µM)	> 125 µg/mL	15.6 µg/mL (≈ 30.7 µM)	15.6 µg/mL (≈ 30.7 µM)	31.2 µg/mL (≈ 61.3 µM)	31.2 µg/mL (≈ 61.3 µM)	31.2 µg/mL (≈ 61.3 µM)	31.2 µg/mL (≈ 61.3 µM)	–	–
Cc1ccc(-c2nn(-c3ccccc3)cc2C2c3c(n(C)c(=O)n(C)c3=O)N=CN2c2cccc([N+](=O)[O-])c2)cc1 (stereo not given)	> 125 µg/mL	> 125 µg/mL	> 125 µg/mL	> 125 µg/mL	> 125 µg/mL	> 125 µg/mL	> 125 µg/mL	–	–	–	–	–	–
COc1ccc(N2C=Nc3c(c(=O)n(C)c(=O)n3C)C2c2cn(-c3ccccc3)nc2-c2cccs2)cc1 (stereo not given)	> 125 µg/mL	15.6 µg/mL (≈ 29.7 µM)	> 125 µg/mL	31.2 µg/mL (≈ 59.5 µM)	> 125 µg/mL	15.6 µg/mL (≈ 29.7 µM)	15.6 µg/mL (≈ 29.7 µM)	31.2 µg/mL (≈ 59.5 µM)	31.2 µg/mL (≈ 59.5 µM)	31.2 µg/mL (≈ 59.5 µM)	15.6 µg/mL (≈ 29.7 µM)	–	–
Cn1c2c(c(=O)n(C)c1=O)C(c1cn(-c3ccccc3)nc1-c1ccc(Cl)cc1)N(c1cccc([N+](=O)[O-])c1)C=N2 (stereo not given)	> 125 µg/mL	> 125 µg/mL	> 125 µg/mL	> 125 µg/mL	> 125 µg/mL	> 125 µg/mL	> 125 µg/mL	–	–	–	–	–	–

From ChEMBL document CHEMBL3997821, “Design, synthesis and evaluation of novel pyrazolo-pyrimido[4,5-d]pyrimidine derivatives as potent antibacterial and biofilm inhibitors” (Bioorg Med Chem Lett, 2017)
